The source of these data is patent publication US20240425491A1, “HETEROARYL COMPOUNDS USEFUL IN THE TREATMENT OF COGNITIVE DISORDERS” (University College Cardiff Consultants Limited, priority 2021, published 2024).

In assay [1] the target is T1, human recombinant GABAAR containing α5β3γ2 subunits (benzodiazepine site) (Homo sapiens, UniProt P18507+P31644).
T1 construct: expressed in transfected cells; host or cells: mouse L(tk−) cells, dexamethasone-inducible vector pMSGneo
Nature of the assay: In vitro radioligand binding assay (α5-GABAAR Ki). Conditions: inhibition of [3H]Ro15-1788 binding, membranes of L(tk−) cells expressing human α5β3γ2; read-out: α5-GABAAR Ki. An outline of the steps:
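Displacement of 4 nM [^3H]flumazenil from the benzodiazepine site, read by filtration and scintillation, gave IC50, converted to Ki (Cheng-Prusoff, saturation-derived Kd). Receptor: human α5β3γ2 membranes from L(tk^−) cells, 50 μg protein/well; 1 h, 4° C; TP003 1 μM defined nonspecific binding.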

The target in assay [2] is T2, human α5β3γ2 GABAARs in mouse L(tk−) cells (Homo sapiens, UniProt P18507+P31644).
T2 construct: expressed in transfected cells; host or cells: mouse L(tk−) cells, dexamethasone-inducible vector pMSGneo
T2 sequence (P31644 32-462): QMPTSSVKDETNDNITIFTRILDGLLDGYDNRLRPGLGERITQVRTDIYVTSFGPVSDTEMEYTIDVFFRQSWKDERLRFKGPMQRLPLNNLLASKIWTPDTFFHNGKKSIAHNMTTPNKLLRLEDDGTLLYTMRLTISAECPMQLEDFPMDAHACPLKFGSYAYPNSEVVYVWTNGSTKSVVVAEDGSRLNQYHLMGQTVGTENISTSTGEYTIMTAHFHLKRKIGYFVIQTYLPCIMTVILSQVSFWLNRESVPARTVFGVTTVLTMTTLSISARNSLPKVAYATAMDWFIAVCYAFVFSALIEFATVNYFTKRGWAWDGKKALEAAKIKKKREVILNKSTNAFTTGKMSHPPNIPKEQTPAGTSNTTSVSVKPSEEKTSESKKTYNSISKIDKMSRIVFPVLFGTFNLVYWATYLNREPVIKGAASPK
T2 sequence (P28472 26-473 partner): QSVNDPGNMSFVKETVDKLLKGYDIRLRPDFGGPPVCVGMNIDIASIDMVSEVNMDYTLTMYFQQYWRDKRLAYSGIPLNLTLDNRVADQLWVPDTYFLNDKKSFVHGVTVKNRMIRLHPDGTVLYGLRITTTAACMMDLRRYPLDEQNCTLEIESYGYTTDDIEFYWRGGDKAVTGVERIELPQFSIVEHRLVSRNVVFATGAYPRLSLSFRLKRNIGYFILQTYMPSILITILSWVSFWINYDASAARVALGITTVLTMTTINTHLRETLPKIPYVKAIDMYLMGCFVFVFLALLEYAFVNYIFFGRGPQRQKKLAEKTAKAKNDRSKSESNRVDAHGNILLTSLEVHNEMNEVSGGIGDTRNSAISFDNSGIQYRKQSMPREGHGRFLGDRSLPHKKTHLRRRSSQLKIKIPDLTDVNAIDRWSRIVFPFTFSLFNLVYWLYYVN
T2 sequence (P18507 40-475): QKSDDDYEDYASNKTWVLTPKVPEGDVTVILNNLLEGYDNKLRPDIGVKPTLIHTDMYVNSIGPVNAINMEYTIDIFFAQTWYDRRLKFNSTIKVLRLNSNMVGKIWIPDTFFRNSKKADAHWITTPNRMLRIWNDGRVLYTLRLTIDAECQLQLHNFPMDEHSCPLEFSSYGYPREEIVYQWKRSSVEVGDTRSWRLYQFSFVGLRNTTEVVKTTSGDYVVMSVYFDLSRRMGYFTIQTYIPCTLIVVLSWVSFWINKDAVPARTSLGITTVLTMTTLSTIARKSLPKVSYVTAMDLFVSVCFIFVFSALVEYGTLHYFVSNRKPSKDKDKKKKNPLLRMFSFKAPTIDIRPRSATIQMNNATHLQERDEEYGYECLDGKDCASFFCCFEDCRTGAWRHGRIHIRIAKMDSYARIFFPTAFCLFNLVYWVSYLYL
The experiment in a line: In vitro electrophysiological recording assay (α5-GABAAR relative efficacy), QPatch. Type of assay: cell-based. Conditions: GABA EC10-20. An excerpt: Mouse L(tk^−) cells stably expressing human α1β3γ2, α2β3γ2, α3β3γ2, α5β3γ2 GABAARs generated by transfection of the individual subunits in the dexamethasone-inducible expression vector pMSGneo in mouse L(tk^−) cells (Hadingham et al., 1993, Mol. Pharmacol. 43:970-975 and 1993, Mol. Pharmacol. 44:1211-1218) were used for binding and functional assays. For certain compounds, HEK293 cells stable expressing the human α1β3γ2L, α2β3γ2L, α3β3γ2L and α5β3γ2L GABAA receptors were used to evaluate their functional effects in a SyncroPatch electrophysiology assay.
For QPatch electrophysiology testing, 1 μM dexamethasone was added to the culture medium of L(tk^−) cells 24 hours before the recordings were performed. Cells were typically used for electrophysiology experiments 72-96 hours after splitting.
The efficacy of modulators was evaluated using either the automated patch-clamp platform QPatch16 (Sophion, Copenhagen, Denmark) or the SyncroPatch 384i (Nanion Technologies, Germany). Cells were harvested from flasks by enzymatic dissociation and re-suspended in serum-free medium.
For QPatch recordings, all experiments were carried out at room temperature (20-22° C.) using a standard whole cell procedure and physiological solutions. Gigaseals were formed upon execution of a combined suction/voltage protocol with subsequent increased suction leading to the whole-cell configuration. The currents recorded were acquired at 1 KHz and filtered at 0.3 KHz using a Bessel filter. Whole-cell currents were measured at a holding potential of −65 mV.
For QPatch recordings, the extracellular solution contained of (in mM): 145 NaCl, 4 KCl, 1 MgCl2, 2CaCl2, 10 HEPES, 10 D-glucose (pH 7.4), and the intracellular solution consisted of (in mM): 96 KCl, 28 CsCl, 25 KOH, 4.3 CaCl2), 1.4 MgCl2, 10 EGTA, HEPES, 3 MgATP (pH 7.2). The osmolarities of the extracellular and intracellular solutions were 305 and 295 mOsm respectively.
The effects of modulators were evaluated in the presence of a submaximal GABA concentration, giving typically 10-20% activation (GABA EC10-20) of the response elicited by a saturating GABA concentration. For QPatch recordings, to check and ensure baseline current stability before compound addition, five consecutive applications of GABA EC10-20 alone (each application with a 2 s duration, separated by minimum 1 min wash off periods) were performed before compound addition. The test compound was applied using the pipetting system of the QPatch system 1 min at least prior to co-application with GABA EC10-20. For SyncroPatch recordings, GABA EC20 alone was applied three times (1 s long applications, with wash steps in-between) before compound addition. This was followed by a 1-2 min pre-incubation with the test compound and then re-application of GABA EC10-20 in the presence of the compound. Finally, following a further wash step, a saturating concentration of GABA was applied, allowing the accurate evaluation for each cell of the percentage baseline activation elicited by the submaximal GABA applied.
The compounds were first dissolved in DMSO as a 10 mM stock and then further diluted to the testing concentrations so that the final DMSO concentration in the extracellular recording solution was kept constant at 0.1% for the QPatch recordings, or 0.2% for the SyncroPatch recordings.
The % efficacy of modulators was determined from the GABA elicited currents recorded in the presence and absence of the test compound, using the formula:
[((compound peak current−leak)−(GABA peak current−leak))/(GABA peak current−leak)]*100,
where ‘leak’ is the leak baseline current at −65 mV, ‘compound peak current’ is the current elicited by co-application of compound and GABA, and ‘GABA peak current’ is the current elicited by GABA alone during the 5th GABA application. The results were presented as ‘relative efficacy’ for each compound generally at a concentration equal or higher than 100 times their determined Ki. […]

T1 sequence (P31644 32-462): as the sequence (P31644 32-462) above
T1 sequence (P28472 26-473 partner): as the sequence (P28472 26-473 partner) above
T1 sequence (P18507 40-475): as the sequence (P18507 40-475) above

Take `COc1nc(-c2cccnc2)ccc1NC(=O)c1c(-c2ccccc2)noc1C` [Example 37, N-(6-Methoxy-[2,3′-bipyridin]-5-yl)-5-methyl-3-phenylisoxazole-4-carboxamide]: the Ki in assay [1] was determined as 2.8 nM. Besides, the “α5-GABAAR Relative Efficacy (to DMCM), Qpatch” value (from here on “α5-GABAAR Relative Efficacy”) in assay [2] (Conc 0.3 μM) is on record as −0.56.

As for `COc1nc(-c2cncc(N)n2)ccc1NC(=O)c1c(-c2ccccc2)noc1C` [Example 40, N-[6-(6-Aminopyrazin-2-yl)-2-methoxy-3-pyridyl]-5-methyl-3-phenyl-isoxazole-4-carboxamide], in assay [1], the Ki was 6.9 nM. The “α5-GABAAR Relative Efficacy” value in assay [2] (Conc 1 μM) is reported as −0.57.

As for `COc1ncc(-c2ccc(NC(=O)c3c(-c4ccccc4)noc3C)c(OC)n2)cn1` [Example 41, N-(2-Methoxy-6-(2-methoxypyrimidin-5-yl)pyridin-3-yl)-5-methyl-3-phenyl-isoxazole-4-carboxamide], in assay [1], the Ki was found to be 1.8 nM. In addition, the “α5-GABAAR Relative Efficacy” value in assay [2] (Conc 0.3 μM) was −0.87.

With `COc1nc(-c2ccncc2)ccc1NC(=O)c1c(-c2ccccc2)noc1C` [Example 42, N-(6-Methoxy-[2,4′-bipyridin]-5-yl)-5-methyl-3-phenylisoxazole-4-carboxamide], the Ki in assay [1] came to 2.8 nM. In addition, in assay [2] (Conc 0.3 μM), the “α5-GABAAR Relative Efficacy” value is −0.60.

`COc1nc(-n2ccnc2)cnc1NC(=O)c1c(-c2ccccc2)noc1C` [Example 44, N-(5-Imidazol-1-yl-3-methoxy-pyrazin-2-yl)-5-methyl-3-phenyl-isoxazole-4-carboxamide]: the Ki in assay [1] was found to be 3.6 nM. Besides, in assay [2] (Conc 1 μM), the “α5-GABAAR Relative Efficacy” value was −0.69.

Consider `COc1nc(-c2cnc(N(C)C)nc2)ccc1NC(=O)c1c(-c2ccccc2)noc1C` [Example 45, N-(6-(2-(Dimethylamino)pyrimidin-5-yl)-2-methoxypyridin-3-yl)-5-methyl-3-phenylisoxazole-4-carboxamide], for which, in assay [1], the Ki was 1.2 nM. The “α5-GABAAR Relative Efficacy” value in assay [2] (Conc 0.3 μM) is −0.65.

Regarding `COc1nc(-n2cncn2)ccc1NC(=O)c1c(-c2ccccc2)noc1C` [Example 46, N-[2-Methoxy-6-(1,2,4-triazol-1-yl)-3-pyridyl]-5-methyl-3-phenyl-isoxazole-4-carboxamide], the Ki in assay [1] was 4.4 nM. The “α5-GABAAR Relative Efficacy” value in assay [2] (Conc 1 μM) is reported as −0.69.

In the case of `CCOc1ncc(-c2ccc(NC(=O)c3c(-c4ccccc4)noc3C)c(OC)n2)cn1` [Example 48, N-[6-(2-Ethoxypyrimidin-5-yl)-2-methoxy-3-pyridyl]-5-methyl-3-phenyl-isoxazole-4-carboxamide], in assay [1], the Ki came out at 2.7 nM. The “α5-GABAAR Relative Efficacy” value in assay [2] (Conc 0.3 μM) was −0.90.

Take `COc1nc(-c2ccc3[nH]nnc3c2)ccc1NC(=O)c1c(-c2ccccc2)noc1C` [Example 49, N-[6-(1H-Benzotriazol-5-yl)-2-methoxy-3-pyridyl]-5-methyl-3-phenyl-isoxazole-4-carboxamide]: in assay [1], the inhibition constant Ki stood at 7.9 nM. Besides, the “α5-GABAAR Relative Efficacy” value in assay [2] (Conc 1 μM) is given as −0.83.

Turning to `COc1nc(-c2cccc3nc(N)nn23)ccc1NC(=O)c1c(-c2ccccc2)noc1C` [Example 50, N-[6-(2-Amino-[1,2,4]triazolo[1,5-a]pyridin-5-yl)-2-methoxy-3-pyridyl]-5-methyl-3-phenyl-isoxazole-4-carboxamide], the Ki in assay [1] was found to be 9.6 nM. Moreover, in assay [2] (Conc 1 μM), the “α5-GABAAR Relative Efficacy” value is on record as −0.74.

Take `COc1nc(-c2ncnn2C)ccc1NC(=O)c1c(-c2ccccc2)noc1C` [Example 52, N-[2-Methoxy-6-(2-methyl-1,2,4-triazol-3-yl)-3-pyridyl]-5-methyl-3-phenyl-isoxazole-4-carboxamide]: the Ki in assay [1] turned out to be 9.8 nM. For the same molecule, in assay [2] (Conc 1 μM), the “α5-GABAAR Relative Efficacy” value was −0.49.

In the case of `COc1nc(-c2nccnc2N)ccc1NC(=O)c1c(-c2ccccc2)noc1C` [Example 54, N-[6-(3-Aminopyrazin-2-yl)-2-methoxy-3-pyridyl]-5-methyl-3-phenyl-isoxazole-4-carboxamide], the inhibitory constant (Ki) in assay [1] was 7.4 nM. Further, the “α5-GABAAR Relative Efficacy” value in assay [2] (Conc 1 μM) is on record as −0.55.

Consider `COc1nc(-c2cncnc2)cnc1NC(=O)c1c(-c2ccccc2)noc1C` [Example 56, N-(3-Methoxy-5-(pyrimidin-5-yl)pyrazin-2-yl)-5-methyl-3-phenylisoxazole-4-carboxamide], for which, in assay [1], the Ki stood at 2.3 nM. Besides, in assay [2] (Conc 0.3 μM), the “α5-GABAAR Relative Efficacy” value was −0.64.

With `COc1nc(-c2ccc3nc(N)nn3c2)ccc1NC(=O)c1c(-c2ccccc2)noc1C` [Example 57, N-[6-(2-Amino-[1,2,4]triazolo[1,5-a]pyridin-6-yl)-2-methoxy-3-pyridyl]-5-methyl-3-phenyl-isoxazole-4-carboxamide], the inhibitory constant (Ki) in assay [1] is 1.5 nM. For the same molecule, the “α5-GABAAR Relative Efficacy” value in assay [2] (Conc 0.3 μM) is reported as −0.57.

For the molecule `COc1nc(-c2nnco2)ccc1NC(=O)c1c(-c2ccccc2)noc1C` [Example 58, N-[2-Methoxy-6-(1,3,4-oxadiazol-2-yl)-3-pyridyl]-5-methyl-3-phenyl-isoxazole-4-carboxamide], the Ki in assay [1] amounted to 18.1 nM. The “α5-GABAAR Relative Efficacy” value in assay [2] (Conc 3 μM) is listed as −0.79.

Consider `COc1nc(-c2cnc(OCC(F)(F)F)nc2)ccc1NC(=O)c1c(-c2ccccc2)noc1C` [Example 59, N-[2-Methoxy-6-[2-(2,2,2-trifluoroethoxy)pyrimidin-5-yl]-3-pyridyl]-5-methyl-3-phenyl-isoxazole-4-carboxamide], for which, in assay [1], the Ki is 10.4 nM. In addition, the “α5-GABAAR Relative Efficacy” value in assay [2] (Conc 3 μM) was −0.75.

Consider `COc1nc(-c2cnc(C(=O)O)nc2)ccc1NC(=O)c1c(-c2ccccc2)noc1C` [Example 60, 5-[6-Methoxy-5-[(5-methyl-3-phenyl-isoxazole-4-carbonyl)amino]-2-pyridyl]pyrimidine-2-carboxylic acid], for which, in assay [1], the Ki is 1.3 nM. Further, the “α5-GABAAR Relative Efficacy” value in assay [2] (Conc 0.3 μM) was −0.92.

For the molecule `COc1nc(-c2ccn3nc(N)nc3c2)ccc1NC(=O)c1c(-c2ccccc2)noc1C.Cl` [Example 61, N-[6-(2-Amino-[1,2,4]triazolo[1,5-a]pyridin-7-yl)-2-methoxy-3-pyridyl]-5-methyl-3-phenyl-isoxazole-4-carboxamide hydrochloride], in assay [1], the Ki was 1.4 nM. Moreover, the “α5-GABAAR Relative Efficacy” value in assay [2] (Conc 0.3 μM) is −0.85.

For the molecule `COc1nc(-n2cnnc2)ccc1NC(=O)c1c(-c2ccccc2)noc1C` [Example 62, N-[2-Methoxy-6-(1,2,4-triazol-4-yl)-3-pyridyl]-5-methyl-3-phenyl-isoxazole-4-carboxamide], in assay [1], the Ki was found to be 1.9 nM. In assay [2] (Conc 0.3 μM), the “α5-GABAAR Relative Efficacy” value is −0.61.

For the molecule `COC(=O)c1ncc(-c2ccc(NC(=O)c3c(-c4ccccc4)noc3C)c(OC)n2)cn1` [Example 70, Methyl 5-[6-methoxy-5-[(5-methyl-3-phenyl-isoxazole-4-carbonyl)amino]-2-pyridyl]pyrimidine-2-carboxylate], the Ki in assay [1] is 0.7 nM. The “α5-GABAAR Relative Efficacy” value in assay [2] (Conc 0.1 μM) was −0.89.
